In one experiment the test system is E. coli 25922. The format is cell-based, Escherichia coli. The method, then:
(§1) The minimum inhibitory concentration of a peptide is the concentration at which no observable bacterial growth can be determined by visual inspection. MIC values are useful for determining the potential of a test article as a therapeutic, as well as in comparison to other test articles. A variety of antimicrobial peptides were tested for activity against an array of clinically relevant bacterial strains. The sequences of SMAP-29 derivatives and their key features can be seen in Table 1, with peptides being named in reference to how they were originally published. Peptides OV3-00 and OV3-01 were utilized in this study. Because the template (or parental) peptide, SMAP-29, derived from sheep leukocytes, is hemolytic to human red blood cells, efforts were made to enhance the therapeutic index of the peptide leading to the creation of OV and OV3 [14, 19]. Various derivatives were made and OV3 came to represent two distinct peptides in the literature: the peptide labeled OV3 and a peptide with an additional c-terminal YG, herein labeled OV3-00. Previous work in our laboratory utilized OV3 for the design and synthesis of ATCUN domain peptides, but it lacks a tryptophan or tyrosine residue that allows for more ready quantification of the peptide concentration by the extinction coefficient, leading to a less accurate, more difficult, concentration analysis by mass spectrometry. To ease quantification and facilitate studies on the OV3 series in our laboratory, and compare the effect of the added YG, additional work was pursued using the longer OV3-00 and OV3-01 derivatives.
(§2) Minimum inhibitory concentrations (MICs) of test molecules were established by broth dilution assays. Mid-log phase bacterial cultures of a variety of clinically important organisms were diluted and incubated with a serial dilution of each peptide, starting at 128 µM. The concentration of peptide at which no visible growth occurred was marked as the MIC. Bacterial strains were incubated in Mueller–Hinton Broth (MHB) at 37 degrees Celsius until the OD600 reached between 0.8 and 1. The resulting culture was subsequently diluted 100× into 96-well plates with the test articles. Positive and negative controls containing only MHB incubated with bacteria and MHB, respectively, were also included on the plate. Each 96-well plate was incubated for 16–20 h, and the MIC was determined by visual inspection. To determine the colony-forming units (CFUs) present in each assay, 100 µL of the 100× diluted culture was further diluted by 1000× and plated on agar plates and determined by use of Equation (1). The colonies were counted to ensure that the CFU value was between 10^4 and 10^5. CFU/mL = (mean # of colonies/0.1 mL) (1000 (dilution factor))(1)

The subject of the next experiment is A. baumannii BAA747. The format is cell-based, Acinetobacter baumannii. The method, then: as §1, §2
A further experiment relates to E. faecium 700221 (VRE). The format is cell-based. As for the experimental part: as §1, §2
A further experiment has as its system K. pneumoniae 700603. The format is cell-based. As for the experimental part:
as §1, §2

Another experiment concerns P. aeruginosa 27583. The format is cell-based. The method, then: as §1, §2
Another experiment relates to S. aureus 43300 (MRSA). The format is cell-based. As for the experimental part: as §1, §2

Converted amounts (≈) assume the structure as drawn. Read-outs that look alike come from different tables or passages of the source. Ends that are not written are not given here. Peptide text beside a SMILES is read from it.

By MIC is commonly meant the lowest concentration found to suppress growth. A high value points to weaker potency.

Turning to `NCC(=O)NCC(=O)N[C@@H](Cc1c[nH]cn1)C(N)=O` [GGH] (H-Gly-Gly-His-NH2), the MIC against E. coli 25922 (25922), with A. baumannii BAA747 (BAA747), in the experiment with E. faecium 700221 (VRE) (700221 (VRE)), in the experiment with K. pneumoniae 700603 (700603), in the experiment on P. aeruginosa 27583 (27583) and in the experiment on S. aureus 43300 (MRSA) (43300) was over 128 µM in each case.

Turning to `CC(C)C[C@H](NC(=O)[C@H](Cc1ccccc1)NC(=O)[C@@H]1CCCN1C(=O)[C@H](Cc1c[nH]c2ccccc12)NC(=O)[C@H](Cc1c[nH]c2ccccc12)NC(=O)[C@H](Cc1c[nH]c2ccccc12)NC(=O)[C@@H]1CCCN1C(=O)[C@H](Cc1ccccc1)NC(=O)[C@H](CCCNC(=N)N)NC(=O)[C@H](CCCNC(=N)N)NC(=O)[C@@H](N)C(C)C)C(=O)N[C@@H](CCCNC(=N)N)C(=O)N[C@@H](CCCNC(=N)N)C(N)=O` [TRP, tritrpticin], the MIC against E. coli 25922 (25922) is reported as 8 µM (≈ 15.2 µg/mL); against A. baumannii BAA747 (BAA747), 8 µM (≈ 15.2 µg/mL); with E. faecium 700221 (VRE) (700221 (VRE)), 2 µM (≈ 3.8 µg/mL); against K. pneumoniae 700603 (700603), 32 µM (≈ 60.8 µg/mL); in the experiment with P. aeruginosa 27583 (27583), 16 µM (≈ 30.4 µg/mL); in the experiment on S. aureus 43300 (MRSA) (43300) it was 8 µM (≈ 15.2 µg/mL).

Take `CC[C@H](C)[C@H](NC(=O)[C@H](Cc1c[nH]cn1)NC(=O)CNC(=O)CN)C(=O)N[C@@H](CC(C)C)C(=O)N1CCC[C@H]1C(=O)N[C@@H](Cc1c[nH]c2ccccc12)C(=O)N[C@@H](CCCCN)C(=O)N[C@@H](Cc1c[nH]c2ccccc12)C(=O)N1CCC[C@H]1C(=O)N[C@@H](Cc1c[nH]c2ccccc12)C(=O)N[C@@H](Cc1c[nH]c2ccccc12)C(=O)N1CCC[C@H]1C(=O)N[C@@H](Cc1c[nH]c2ccccc12)C(=O)N[C@@H](CCCNC(=N)N)C(=O)N[C@@H](CCCNC(=N)N)C(=O)NCC(=O)NCC(=O)N[C@@H](CS)C(N)=O` [IND-01]: the MIC against E. coli 25922 (25922) is 32 µM (≈ 76 µg/mL); in the experiment on A. baumannii BAA747 (BAA747), 32 µM (≈ 76 µg/mL); against E. faecium 700221 (VRE) (700221 (VRE)), 8 µM (≈ 19 µg/mL); in the experiment with K. pneumoniae 700603 (700603), over 64 µM; with P. aeruginosa 27583 (27583) it was over 64 µM; in the experiment on S. aureus 43300 (MRSA) (43300) it was 64 µM (≈ 152 µg/mL).

As to `CC[C@H](C)[C@H](NC(=O)[C@H](CC(C)C)NC(=O)[C@H](C)NC(=O)[C@@H]1CCCN1C(=O)[C@H](CC(C)C)NC(=O)CNC(=O)[C@@H](NC(=O)[C@@H](NC(=O)[C@H](CC(C)C)NC(=O)[C@@H](NC(=O)[C@H](CCCCN)NC(=O)[C@H](CCCCN)NC(=O)[C@@H](NC(=O)[C@H](C)NC(=O)[C@@H](NC(=O)[C@@H](NC(=O)[C@H](CC(C)C)NC(=O)[C@H](CCCCN)NC(=O)[C@H](CCCCN)NC(=O)[C@@H](NC(=O)[C@H](Cc1ccccc1)NC(=O)[C@H](CO)NC(=O)[C@H](CCCCN)NC(=O)[C@H](Cc1c[nH]c2ccccc12)NC(=O)[C@H](CCCCN)NC(=O)[C@H](Cc1c[nH]cn1)NC(=O)CNC(=O)CN)[C@@H](C)CC)[C@@H](C)O)[C@@H](C)O)C(C)C)C(C)C)[C@@H](C)O)[C@@H](C)O)C(=O)N[C@@H](CO)C(N)=O` [CP29-01], the MIC is listed as 8 µM (≈ 25 µg/mL) against E. coli 25922 (E. coli 25922, Gram (-), broth dilution in MHB, 37 °C, 16–20 h, visual inspection, dilution from 128 µM); 1 µM (≈ 3.12 µg/mL) in the experiment on A. baumannii BAA747 (A. baumannii BAA747, Gram (-), broth dilution in MHB, 37 °C, 16–20 h, visual inspection); 4 µM (≈ 12.5 µg/mL) against E. faecium 700221 (VRE) (E. faecium 700221 (VRE), Gram (+), broth dilution in MHB, 37 °C, 16–20 h, visual inspection); 8 µM (≈ 25 µg/mL) in the experiment with K. pneumoniae 700603 (K. pneumoniae 700603, Gram (-), broth dilution in MHB, 37 °C, 16–20 h, visual inspection); 2 µM (≈ 6.25 µg/mL) against P. aeruginosa 27583 (P. aeruginosa 27583, Gram (-), broth dilution in MHB, 37 °C, 16–20 h, visual inspection); 16 µM (≈ 50 µg/mL) with S. aureus 43300 (MRSA) (S. aureus 43300 (MRSA), Gram (+), broth dilution in MHB, 37 °C, 16–20 h, visual inspection).

For the compound FVQWFSKFLGRIL-NH2 [TempL], the MIC against E. coli 25922 (25922) is recorded as 4 µM; in the experiment on A. baumannii BAA747 (BAA747) it was 4 µM; with E. faecium 700221 (VRE) (700221 (VRE)), 8 µM; against K. pneumoniae 700603 (700603) it was 16 µM; with P. aeruginosa 27583 (27583) it was 32 µM; in the experiment on S. aureus 43300 (MRSA) (43300), 4 µM.

For the compound IRRIIRKIIHIIKKYG-NH2 [OV3-00], the MIC with E. coli 25922 (25922) is 2 µM; against A. baumannii BAA747 (BAA747), 4 µM; against E. faecium 700221 (VRE) (700221 (VRE)), 4 µM; against K. pneumoniae 700603 (700603), 4 µM; against P. aeruginosa 27583 (27583) it was 16 µM; against S. aureus 43300 (MRSA) (43300) it was 8 µM.

As for “GGHGIGKFLHSAKKWGKAFVGEIMNS-NH2 [Mag2-01]”, the minimum inhibitory concentration (MIC) is recorded as 16 µM in the experiment on E. coli 25922 (25922); 8 µM in the experiment on A. baumannii BAA747 (BAA747); 32 µM with E. faecium 700221 (VRE) (700221 (VRE)); 64 µM in the experiment with K. pneumoniae 700603 (700603); 64 µM with P. aeruginosa 27583 (27583); over 128 µM with S. aureus 43300 (MRSA) (43300).

(Values after PMC9692552, “Activity and Synergy of Cu-ATCUN Antimicrobial Peptides” (International Journal of Molecular Sciences, 2022).)
